Several values for one entry are separate records, joined by “and”; a condition that tells them apart may be missing. Equal values may be shown once.
Key:
[1] = target: T1, glucocerebrosidase (Ceredase) (Homo sapiens, UniProt P04062); experiment: activity of soluble human placental glucocerebrosidase (Ceredase) towards 4MU-b-glucoside; format: biochemical
T1 construct: purchased Genzyme Corp. Boston,USA; host or cells: human placenta
T1 sequence (P04062 40-536): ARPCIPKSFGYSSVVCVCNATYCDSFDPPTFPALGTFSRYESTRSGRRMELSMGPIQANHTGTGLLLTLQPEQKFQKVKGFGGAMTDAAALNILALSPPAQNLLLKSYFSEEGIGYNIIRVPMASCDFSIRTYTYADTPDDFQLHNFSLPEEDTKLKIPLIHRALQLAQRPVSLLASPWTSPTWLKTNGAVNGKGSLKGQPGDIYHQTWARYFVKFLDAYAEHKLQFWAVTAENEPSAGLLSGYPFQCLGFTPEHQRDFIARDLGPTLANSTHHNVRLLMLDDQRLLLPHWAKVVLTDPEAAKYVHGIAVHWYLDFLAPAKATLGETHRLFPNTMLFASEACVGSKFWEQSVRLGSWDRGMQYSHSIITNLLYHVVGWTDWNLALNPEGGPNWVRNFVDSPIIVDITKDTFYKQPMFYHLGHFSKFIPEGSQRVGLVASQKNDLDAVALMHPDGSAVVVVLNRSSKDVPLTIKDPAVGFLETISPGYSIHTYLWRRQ

glucocerebrosidase [2] = target: T2, glucocerebrosidase (Homo sapiens, UniProt P04062); experiment: conduritol B-epoxide inhibitable glucocerebrosidase activity in membrane fraction from human spleen; format: biochemical
T2 sequence (P04062 40-536): T1 sequence (P04062 40-536)

lysosomal a-glucosidase [3] = target: T3, lysosomal a-glucosidase (Homo sapiens, UniProt P10253); experiment: purified lysosomal a-glucosidase activity towards 4MU-a-glucoside; format: biochemical; conditions: 4MU-a-glucoside, pH 4.0; read-out: apparent Ki A-GLUCOSIDASE
[4] = target: T4, glucosylceramide synthase (Homo sapiens, UniProt Q16739); experiment: glucosylceramide synthase activity in cultured melanoma cells; format: cell-based; conditions: at IC50 concentration for glucosylceramidase
T4 sequence (Q16739 1-394): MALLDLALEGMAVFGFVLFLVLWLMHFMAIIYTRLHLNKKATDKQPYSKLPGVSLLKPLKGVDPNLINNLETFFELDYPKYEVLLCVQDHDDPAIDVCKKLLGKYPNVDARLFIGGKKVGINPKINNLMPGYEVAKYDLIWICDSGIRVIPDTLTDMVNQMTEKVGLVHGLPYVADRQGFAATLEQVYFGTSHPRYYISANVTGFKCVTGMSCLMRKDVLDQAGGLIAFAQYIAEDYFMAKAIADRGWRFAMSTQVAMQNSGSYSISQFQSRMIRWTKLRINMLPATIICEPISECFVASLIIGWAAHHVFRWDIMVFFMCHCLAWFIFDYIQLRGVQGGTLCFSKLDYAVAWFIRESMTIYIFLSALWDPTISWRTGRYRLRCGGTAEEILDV

glycogen synthase = target: T5, glycogen synthase (Rattus norvegicus, UniProt P17625); experiment: glycogen synthase in rat hepatocytes; format: cell-based; conditions: at IC50 concentration for glucosylceramidase
T5 construct: endogenous in cells; host or cells: rat hepatocytes
T5 sequence (P17625 1-704): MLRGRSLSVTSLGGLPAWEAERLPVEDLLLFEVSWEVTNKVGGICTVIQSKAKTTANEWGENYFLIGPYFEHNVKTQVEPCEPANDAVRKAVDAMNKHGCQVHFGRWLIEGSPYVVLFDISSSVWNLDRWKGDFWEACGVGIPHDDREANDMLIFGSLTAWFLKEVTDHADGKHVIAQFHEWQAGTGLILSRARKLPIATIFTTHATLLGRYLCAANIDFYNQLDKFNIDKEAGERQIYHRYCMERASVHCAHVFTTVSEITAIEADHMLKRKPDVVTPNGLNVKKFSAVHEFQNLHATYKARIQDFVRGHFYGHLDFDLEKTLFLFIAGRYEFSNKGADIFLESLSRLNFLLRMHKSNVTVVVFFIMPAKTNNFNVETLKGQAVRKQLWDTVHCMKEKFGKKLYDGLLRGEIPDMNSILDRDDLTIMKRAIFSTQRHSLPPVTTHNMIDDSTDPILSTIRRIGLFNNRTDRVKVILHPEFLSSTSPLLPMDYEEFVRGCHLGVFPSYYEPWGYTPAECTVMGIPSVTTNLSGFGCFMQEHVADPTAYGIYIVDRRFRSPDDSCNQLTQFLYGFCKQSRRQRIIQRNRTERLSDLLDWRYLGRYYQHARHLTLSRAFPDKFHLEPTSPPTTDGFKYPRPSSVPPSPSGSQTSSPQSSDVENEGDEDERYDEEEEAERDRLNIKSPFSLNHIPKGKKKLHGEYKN

glucosylceramidase [5] = target: T6, glucosylceramidase (Homo sapiens, UniProt Q9HCG7); experiment: glucosylceramidase activity in intact melanoma cells (4MU-b-glucoside, conduritol B-epoxide insensitive); format: cell-based; parameters: endogenous in cells; conditions: IC50 GLUCOSYLCERAMIDASE
T6 sequence (Q9HCG7 1-927): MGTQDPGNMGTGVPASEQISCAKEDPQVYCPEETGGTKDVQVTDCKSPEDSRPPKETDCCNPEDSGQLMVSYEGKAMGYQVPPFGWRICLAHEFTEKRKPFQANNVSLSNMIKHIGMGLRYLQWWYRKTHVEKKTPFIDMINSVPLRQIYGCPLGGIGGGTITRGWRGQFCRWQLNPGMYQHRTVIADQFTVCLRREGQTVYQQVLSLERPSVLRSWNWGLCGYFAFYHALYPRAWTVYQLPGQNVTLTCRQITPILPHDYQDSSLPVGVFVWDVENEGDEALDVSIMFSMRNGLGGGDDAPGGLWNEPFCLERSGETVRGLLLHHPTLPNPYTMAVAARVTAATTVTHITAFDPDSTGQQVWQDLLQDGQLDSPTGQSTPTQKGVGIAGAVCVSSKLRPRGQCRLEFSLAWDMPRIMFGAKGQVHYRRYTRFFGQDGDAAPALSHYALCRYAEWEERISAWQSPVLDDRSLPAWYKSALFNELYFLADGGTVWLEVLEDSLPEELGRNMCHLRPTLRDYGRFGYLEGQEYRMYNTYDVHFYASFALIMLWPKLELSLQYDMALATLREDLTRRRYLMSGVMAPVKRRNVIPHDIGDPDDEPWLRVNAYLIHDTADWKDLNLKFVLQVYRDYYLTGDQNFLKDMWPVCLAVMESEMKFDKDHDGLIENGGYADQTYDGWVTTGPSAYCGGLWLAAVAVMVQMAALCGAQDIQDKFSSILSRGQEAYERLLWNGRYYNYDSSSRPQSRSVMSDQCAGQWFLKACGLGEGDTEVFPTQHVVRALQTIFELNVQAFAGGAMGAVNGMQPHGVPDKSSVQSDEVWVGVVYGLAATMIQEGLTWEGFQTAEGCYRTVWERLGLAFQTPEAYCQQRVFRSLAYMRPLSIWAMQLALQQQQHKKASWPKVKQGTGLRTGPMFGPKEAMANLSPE

lysosomal a-glucosidase [6] = target: T3, lysosomal a-glucosidase; experiment: lysosomal a-glucosidase in cultured melanoma cells; format: cell-based; parameters: endogenous in cells; conditions: at IC50 concentration for glucosylceramidase
glucocerebrosidase [7] = target: T2, glucocerebrosidase; experiment: glucocerebrosidase activity in intact melanoma cells (4MU-b-glucoside, conduritol B-epoxide sensitive); format: cell-based; parameters: the hydrolysis of 4MU-b-glucoside by cultured melanoma cells; endogenous in cells
glucosylceramidase [8] = target: T6, glucosylceramidase; experiment: glucosylceramidase activity towards 4MU-b-glucoside in conduritol B-epoxide pre-treated membrane suspension from human spleen

SMILES: CC(C)CCC[C@@H](C)[C@H]1CC[C@H]2[C@@H]3CC=C4C[C@@H](OCCCCCN5C[C@H](O)[C@@H](O)[C@H](O)[C@H]5CO)CC[C@]4(C)[C@H]3CC[C@]12C [P24, N-(5-cholesteroloxy-pentyl)-deoxynojirimycin]
- IC50 [1]: 800 nM
- Ki ([1]; soluble enzyme, 0.25% sodium taurocholate, 0.1% Triton X-100, pH 5.2, read-out: apparent Ki GLUCOCEREBROSIDASE CEREDASE): 960 nM
- IC50 (glucocerebrosidase [2]): 700 nM
- Ki (glucocerebrosidase [2]; membrane suspension, 4MU-b-glucoside, pH 5.2, read-out: apparent Ki GLUCOCEREBROSIDASE MEMBRANES): 770 nM
- Ki (lysosomal a-glucosidase [3]): 7200 nM
- inhibition of glucosylceramide synthase activity [4]: no inhibition
- inhibition of glycogen synthase (glycogen synthase): no inhibition
- IC50 (glucosylceramidase [5]): 50 nM and ~50 nM
- inhibition of lysosomal a-glucosidase (lysosomal a-glucosidase [6]): no inhibition
- IC50 (glucocerebrosidase [7]): 800 nM
- inhibition of glucocerebrosidase activity (glucocerebrosidase [7]; melanoma cells, at IC50 for glucosylceramidase or ten-fold higher concentrations): no significant inhibition
- IC50 (glucosylceramidase [8]): 100 nM
- Ki (glucosylceramidase [8]): 97 nM

From US6177447A (Universiteit van Amsterdam, priority 1996, dated 2001)
